Source: patent publication US6858650B1, “Stable salts of novel derivatives of 3,3-diphenylpropylamines” (Schwarz Pharma AG, priority 1999, dated 2005)

Tests used:
[1] = Hygroscopicity of the solid salt; assay type: physicochemical
[2] = Stability of the solid salt / on storage; assay type: physicochemical

| hygroscopicity ([1]; crystalline hydrogen fumarate salt) | stability ([2]; crystalline hydrogen fumarate salt, at RT) | hygroscopicity ([1]; anhydrous product crystallised from isobutyrate chloride solution) | stability ([2]; hydrate-containing product from humid solvent with at least one mole equivalent of water) | SMILES |
| --- | --- | --- | --- | --- |
| non-hygroscopic | stable at RT |  |  | CC(C)C(=O)Oc1ccc(CO)cc1C(CCN(C(C)C)C(C)C)c1ccccc1.O=C(O)/C=C/C(=O)O (stereo not drawn) [2a, R-(+)-2-(3-diisopropylamino-1-phenylpropyl)-4-hydroxymethylphenyl-isobutyrate ester hydrogen fumarate] |
|  |  | very hygroscopic | stable | CC(C)C(=O)Oc1ccc(CO)cc1C(CCN(C(C)C)C(C)C)c1ccccc1.Cl (stereo not drawn) [2b, R-(+)-2-(3-diisopropylamino-1-phenylpropyl)-4-hydroxymethylphenyl-isobutyrate ester hydrochloride hydrate] |
